According to patent publication US20250099383A1, “COMPOSITIONS AND METHODS FOR DELIVERY OF NUCLEIC ACIDS” (Poseida Therapeutics, Inc., priority 2022, published 2025):

Assay: Physical characteristics of LNPs (particle size, PDI)
Assay type: physicochemical
Conditions: for PDI DNA / Particle Size (nm) DNA: LNP with Fluc DNA, compound/DOPE/Cholesterol/DMG-PEG2000 38/50/10.0/2.0, Lipid:DNA 45:1 (w/w); for PDI RNA / Particle Size (nm) RNA: LNP with Fluc mRNA, compound/DOPE/Cholesterol/DMG-PEG2000 41.44/45.85/10/2.7, Lipid:RNA 40:1 (w/w)
Protocol: LNP compositions of the present disclosure comprising exemplary compounds of Formula (I) were prepared by combining various percentages of an exemplary compound of Formula (I), the phospholipid DOPE, the structural lipid cholesterol (Chol) and 1,2-dimyristoyl-sn-glycerol methoxypolyethylene glycol (DMG-PEG2000; Avanti Polar Lipids, Alabaster, Alabama, USA).
Individual 25 mg/ml stock solutions were prepared by solubilizing the lipids in 200-proof HPLC-grade ethanol and stock solutions were stored at −80° C. until formulated. At the time of formulation, the lipid stock solutions were briefly allowed to equilibrate to room temp and then placed on a hot plate maintained at a temperature range of 50-55° C.
A 1 mg/ml solution of the desired mRNA or DNA to be incorporated into the LNPs was added to 150 mM sodium acetate buffer (pH 5.2) to form a stock solution and kept on ice. The aqueous mRNA or DNA was then added to the lipids as shown in Table 4 or 5 and hand-mixed vigorously with a single channel pipettor.
The resultant mRNA or DNA LNP compositions were then transferred to a Repligen Float-A-Lyzer dialysis device-having a molecular weight cut off (MWCO) of 8-10 kDa (Spectrum Chemical Mfg. Corp, CA, USA) and processed by dialysis against phosphate buffered saline (PBS) (dialysate: dialysis buffer volume at least 1:200 v/v), pH 7.4 overnight at 4° C. (or alternatively room temperature for at least 4 hours), to remove the 25% ethanol and achieve a complete buffer exchange. In some experiments the LNPs were further concentrated by in an Amicon® Ultra-4 centrifugal filter unit, MWCO-30 kDa (Millipore Sigma, USA) spun at ˜4100 x g in an ultracentrifuge. The mRNA and DNA LNPs were then stored at 4° C. until further use.
LNP compositions of the present disclosure comprising mRNA or DNA encoding firefly luciferase (hereafter “Fluc”; TriLink) and COMPOUNDS 5-49 were prepared as described in Example 61 by combining one of COMPOUNDS 5-49, the phospholipid DOPE, the structural lipid cholesterol (Chol) and 1,2-dimyristoyl-sn-glycerol methoxypolyethylene glycol (DMG-PEG2000) in the percentages presented in Tables 6 and 7:
The physical characteristics of the resulting LNPs were analyzed.
A 1 mg/ml solution of the 5′-CleanCap--fLuciferase mRNA (TriLink Biotech) to be incorporated into the LNPs was added to 150 mM sodium acetate buffer (pH 5.2) to form a stock solution and kept on ice. The lipid phase was mixed with the aqueous mRNA phase inside a microfluidic chip using a NanoAssemblr® instrument (Precision Nanosystems, Vancouver, BC, Canada) according to the manufacturer's instructions to form LNP compositions comprising encapsulated mRNAs.
The average particle size diameter of the LNPs was approximately 75-150 nm.

CC(C)=CCC/C(C)=C/CCC1=CCC(C(=O)OCCOC(=O)CCN(CCCN(C)C)CCC(=O)OCCOC(=O)C2CC=C(CC/C=C(\C)CCC=C(C)C)CC2)CC1 (stereo not shown) [Compound 5, (E)-((3,3′-((3-(dimethylamino)propyl)azanediyl)bis(propanoyl))bis(oxy)) bis(ethane-2,1-diyl)bis(4-((E)-4,8-dimethylnona-3,7-dien-1-yl)cyclohex-3-enecarboxylate)]
PDI DNA: 0.203 | Particle Size (nm) DNA: 187.9 nm | PDI RNA: 0.200 | Particle Size (nm) RNA: 180.3 nm

CC(C)=CCC/C(C)=C/CCC1=CCC(C(=O)OCCOC(=O)CCN(CCC(=O)OCCOC(=O)C2CC=C(CC/C=C(\C)CCC=C(C)C)CC2)CCN2CCCCC2)CC1 (stereo not shown) [Compound 6, (E)-((3,3′-((2-(piperidin-1-yl)ethyl)azanediyl)bis(propanoyl))bis(oxy)) bis(ethane-2,1-diyl)bis(4-((E)-4,8-dimethylnona-3,7-dien-1-yl)cyclohex-3-enecarboxylate)]
PDI DNA: 0.154 | Particle Size (nm) DNA: 167 nm | PDI RNA: 0.260 | Particle Size (nm) RNA: 202.2 nm

CC(C)=CCC/C(C)=C/CCC1=CCC(C(=O)OCCOC(=O)CCN(CCCCCCN(CCC(=O)OCCOC(=O)C2CC=C(CC/C=C(\C)CCC=C(C)C)CC2)CCC(=O)OCCOC(=O)C2CC=C(CC/C=C(\C)CCC=C(C)C)CC2)CCC(=O)OCCOC(=O)C2CC=C(CC/C=C(\C)CCC=C(C)C)CC2)CC1 (stereo not shown) [Compound 7]
PDI DNA: 0.221 | Particle Size (nm) DNA: 299.7 nm | PDI RNA: 0.099 | Particle Size (nm) RNA: 441.0 nm

CC(C)=CCC/C(C)=C/CCC1=CCC(C(=O)OCCOC(=O)CCN(CCC(=O)OCCOC(=O)C2CC=C(CC/C=C(\C)CCC=C(C)C)CC2)CCN(CCN(CCC(=O)OCCOC(=O)C2CC=C(CC/C=C(\C)CCC=C(C)C)CC2)CCC(=O)OCCOC(=O)C2CC=C(CC/C=C(\C)CCC=C(C)C)CC2)CCN(CCC(=O)OCCOC(=O)C2CC=C(CC/C=C(\C)CCC=C(C)C)CC2)CCC(=O)OCCOC(=O)C2CC=C(CC/C=C(\C)CCC=C(C)C)CC2)CC1 (stereo not shown) [Compound 11]
PDI DNA: 0.152 | Particle Size (nm) DNA: 396.1 nm | PDI RNA: 0.145 | Particle Size (nm) RNA: 355.6 nm

CC(C)CCCC(C)CCCC1CCC(C(=O)OCCOC(=O)CCN(CCCN(C)C)CCC(=O)OCCOC(=O)C2CCC(CCCC(C)CCCC(C)C)CC2)CC1 (stereo not shown) [Compound 12, ((3,3′-((3-(dimethylamino)propyl)azanediyl)bis(propanoyl))bis(oxy)) bis(ethane-2,1-diyl)bis(4-(4,8-dimethylnonyl)cyclohexanecarboxylate)]
PDI DNA: 0.235 | Particle Size (nm) DNA: 170.6 nm | PDI RNA: 0.235 | Particle Size (nm) RNA: 167.6 nm

CC(C)CCCC(C)CCCC1CCC(C(=O)OCCOC(=O)CCN(CCC(=O)OCCOC(=O)C2CCC(CCCC(C)CCCC(C)C)CC2)CCN2CCCCC2)CC1 (stereo not shown) [Compound 13, ((3,3′-((2-(piperidin-1-yl)ethyl)azanediyl)bis(propanoyl))bis(oxy)) bis(ethane-2,1-diyl)bis(4-(4,8-dimethylnonyl)cyclohexanecarboxylate)]
PDI DNA: 0.232 | Particle Size (nm) DNA: 174.1 nm | PDI RNA: 0.272 | Particle Size (nm) RNA: 120.6 nm

CC(C)CCCC(C)CCCC1CCC(C(=O)OCCOC(=O)CCN(CCCCCCN(CCC(=O)OCCOC(=O)C2CCC(CCCC(C)CCCC(C)C)CC2)CCC(=O)OCCOC(=O)C2CCC(CCCC(C)CCCC(C)C)CC2)CCC(=O)OCCOC(=O)C2CCC(CCCC(C)CCCC(C)C)CC2)CC1 (stereo not shown) [Compound 14]
PDI DNA: 0.219 | Particle Size (nm) DNA: 348.8 nm | PDI RNA: 0.104 | Particle Size (nm) RNA: 334.8 nm

CC(C)CCCC(C)CCCC1CCC(C(=O)OCCOC(=O)CCN(CCC(=O)OCCOC(=O)C2CCC(CCCC(C)CCCC(C)C)CC2)CC(C)N(CCC(=O)OCCOC(=O)C2CCC(CCCC(C)CCCC(C)C)CC2)CCC(=O)OCCOC(=O)C2CCC(CCCC(C)CCCC(C)C)CC2)CC1 (stereo not shown) [Compound 15]
PDI DNA: 0.183 | Particle Size (nm) DNA: 297.6 nm | PDI RNA: 0.115 | Particle Size (nm) RNA: 362.5 nm

CC(C)CCCC(C)CCCC1CCC(C(=O)OCCOC(=O)CCN(CCC(=O)OCCOC(=O)C2CCC(CCCC(C)CCCC(C)C)CC2)CCN(CCN(CCC(=O)OCCOC(=O)C2CCC(CCCC(C)CCCC(C)C)CC2)CCC(=O)OCCOC(=O)C2CCC(CCCC(C)CCCC(C)C)CC2)CCN(CCC(=O)OCCOC(=O)C2CCC(CCCC(C)CCCC(C)C)CC2)CCC(=O)OCCOC(=O)C2CCC(CCCC(C)CCCC(C)C)CC2)CC1 (stereo not shown) [Compound 18]
PDI DNA: 0.072 | Particle Size (nm) DNA: 368.6 nm | PDI RNA: 0.153 | Particle Size (nm) RNA: 323.3 nm

CC(C)=CCCC1=CCC(C(=O)OCCOC(=O)CCN(CCCCCCN(CCC(=O)OCCOC(=O)C2CC=C(CCC=C(C)C)CC2)CCC(=O)OCCOC(=O)C2CC=C(CCC=C(C)C)CC2)CCC(=O)OCCOC(=O)C2CC=C(CCC=C(C)C)CC2)CC1 (stereo not shown) [Compound 20]
PDI DNA: 0.223 | Particle Size (nm) DNA: 304.3 nm | PDI RNA: 0.082 | Particle Size (nm) RNA: 316.9 nm

CC(C)=CCCC1=CCC(C(=O)OCCOC(=O)CCN(CCC(=O)OCCOC(=O)C2CC=C(CCC=C(C)C)CC2)CC(C)N(CCC(=O)OCCOC(=O)C2CC=C(CCC=C(C)C)CC2)CCC(=O)OCCOC(=O)C2CC=C(CCC=C(C)C)CC2)CC1 (stereo not shown) [Compound 21]
PDI DNA: 0.206 | Particle Size (nm) DNA: 268.3 nm | PDI RNA: 0.102 | Particle Size (nm) RNA: 296.9 nm

CC(C)=CCCC1=CCC(C(=O)OCCOC(=O)CCN(CCC(=O)OCCOC(=O)C2CC=C(CCC=C(C)C)CC2)CCN(CCN(CCC(=O)OCCOC(=O)C2CC=C(CCC=C(C)C)CC2)CCC(=O)OCCOC(=O)C2CC=C(CCC=C(C)C)CC2)CCN(CCC(=O)OCCOC(=O)C2CC=C(CCC=C(C)C)CC2)CCC(=O)OCCOC(=O)C2CCC(CCC=C(C)C)CC2)CC1 (stereo not shown) [Compound 24]
PDI DNA: 0.294 | Particle Size (nm) DNA: 353.7 nm | PDI RNA: 0.106 | Particle Size (nm) RNA: 314.9 nm

CC(C)CCCC1CCC(C(=O)OCCOC(=O)CCN(CCCN(C)C)CCC(=O)OCCOC(=O)C2CCC(CCCC(C)C)CC2)CC1 (stereo not shown) [Compound 25]
PDI DNA: 0.227 | Particle Size (nm) DNA: 188.5 nm | PDI RNA: 0.143 | Particle Size (nm) RNA: 177.9 nm

CC(C)CCCC1CCC(C(=O)OCCOC(=O)CCN(CCC(=O)OCCOC(=O)C2CCC(CCCC(C)C)CC2)CCN2CCCCC2)CC1 (stereo not shown) [Compound 26]
PDI DNA: 0.151 | Particle Size (nm) DNA: 162.1 nm | PDI RNA: 0.202 | Particle Size (nm) RNA: 169.4 nm

CC(C)CCCC1CCC(C(=O)OCCOC(=O)CCN(CCCCCCN(CCC(=O)OCCOC(=O)C2CCC(CCCC(C)C)CC2)CCC(=O)OCCOC(=O)C2CCC(CCCC(C)C)CC2)CCC(=O)OCCOC(=O)C2CCC(CCCC(C)C)CC2)CC1 (stereo not shown) [Compound 27]
PDI DNA: 0.177 | Particle Size (nm) DNA: 253.9 nm | PDI RNA: 0.149 | Particle Size (nm) RNA: 293.9 nm

CC(C)CCCC1CCC(C(=O)OCCOC(=O)CCN(CCC(=O)OCCOC(=O)C2CCC(CCCC(C)C)CC2)CC(C)N(CCC(=O)OCCOC(=O)C2CCC(CCCC(C)C)CC2)CCC(=O)OCCOC(=O)C2CCC(CCCC(C)C)CC2)CC1 (stereo not shown) [Compound 28]
PDI DNA: 0.12 | Particle Size (nm) DNA: 224.7 nm | PDI RNA: 0.027 | Particle Size (nm) RNA: 254.2 nm

CC(C)=CCC/C(C)=C/CCC1=CCC(C(=O)OCCN(C)CCOC(=O)C2CC=C(CC/C=C(\C)CCC=C(C)C)CC2)CC1 (stereo not shown) [Compound 32]
PDI DNA: 0.09 | Particle Size (nm) DNA: 289.2 nm | PDI RNA: 0.108 | Particle Size (nm) RNA: 269.6 nm

CCN(CCOC(=O)C1CC=C(CC/C=C(\C)CCC=C(C)C)CC1)CCOC(=O)C1CC=C(CC/C=C(\C)CCC=C(C)C)CC1 (stereo not shown) [Compound 33]
PDI DNA: 0.087 | Particle Size (nm) DNA: 302 nm | PDI RNA: 0.079 | Particle Size (nm) RNA: 332.9 nm

CCCCN(CCOC(=O)C1CC=C(CC/C=C(\C)CCC=C(C)C)CC1)CCOC(=O)C1CC=C(CC/C=C(\C)CCC=C(C)C)CC1 (stereo not shown) [Compound 34]
PDI DNA: 0.128 | Particle Size (nm) DNA: 290.2 nm | PDI RNA: 0.127 | Particle Size (nm) RNA: 386.4 nm
